Patent US8557816B2, “Aurora kinase modulators and method of use” (Amgen Inc., priority 2007, dated 2013)
Read-outs that look alike come from different tables or passages of the source.

How the values were obtained:
AuroraA-TPX2 = target: T1, AuroraA-TPX2 (Homo sapiens, UniProt O14965); assay: AuroraA-TPX2 Homogeneous Time Resolved Fluorescent (HTRF) kinase assay; format: biochemical
T1 construct: 20 μL of AuroraA-TPX2 KD GST for a final volume of about 41 μL; GST
T1 sequence (O14965 133-383 limits assumed): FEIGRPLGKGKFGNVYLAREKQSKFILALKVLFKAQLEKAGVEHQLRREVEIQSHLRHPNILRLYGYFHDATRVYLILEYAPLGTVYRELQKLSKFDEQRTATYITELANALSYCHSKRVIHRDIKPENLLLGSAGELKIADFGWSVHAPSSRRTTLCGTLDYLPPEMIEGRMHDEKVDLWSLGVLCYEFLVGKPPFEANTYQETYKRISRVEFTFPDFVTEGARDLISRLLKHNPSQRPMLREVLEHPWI
T1 sequence (Q9ULW0 1-43 partner limits assumed): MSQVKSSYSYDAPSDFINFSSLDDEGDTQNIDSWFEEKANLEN
Procedure, shortened: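 HTRF read-out (Eu 615 nm to APC 655 nm) of phosphorylated biotin-PLK, detected with 0.02 nM europium anti-phosphoPLK antibody and 0.0005 mg/mL SA-APC after overnight equilibration.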

AuroraB = target: T2, AuroraB (Homo sapiens, UniProt Q96GD4); assay: AuroraB Homogeneous Time Resolved Fluorescent (HTRF) kinase assay; format: biochemical
T2 construct: 20 μL of AuroraB FL H is for a final volume of 41 μL; His
Procedure, shortened: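 Full-length His-tagged kinase phosphorylates biotinylated Histone H3 (0.1 μM final) with ATP in pH 7.5 HEPES containing MgCl, MnCl, DTT and BSA for about 90 min. EDTA-containing detection mix with SA-APC and Eu-anti-phosphoHistone H3 then equilibrated about 60 min; HTRF read with 320 nm excitation, emissions 615/655 nm.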

[1] = average, read-out: AurA_IC50_IP (uM Avg)
[2] = average, read-out: AurB_IC50_IP (uM Avg)

T2 sequence (Q96GD4 whole entry): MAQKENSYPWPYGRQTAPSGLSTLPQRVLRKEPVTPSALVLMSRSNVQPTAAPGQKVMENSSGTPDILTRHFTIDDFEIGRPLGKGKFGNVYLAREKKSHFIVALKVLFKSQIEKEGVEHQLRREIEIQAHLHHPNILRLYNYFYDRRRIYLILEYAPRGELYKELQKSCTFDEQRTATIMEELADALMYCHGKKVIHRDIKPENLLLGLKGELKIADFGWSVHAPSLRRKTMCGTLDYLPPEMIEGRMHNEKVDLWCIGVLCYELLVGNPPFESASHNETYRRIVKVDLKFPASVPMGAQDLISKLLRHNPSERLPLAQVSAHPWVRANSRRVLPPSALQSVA

Row | Structure (SMILES) | IC50 (AuroraA-TPX2; [1]) [µM] | IC50 (AuroraB; [2]) [µM] | IC50 (AuroraA-TPX2; given as class symbol, read-out: AurA_IC50_IP (class symbol)) [µM] | IC50 (AuroraB; given as class symbol, read-out: AurB_IC50_IP (class symbol)) [µM]
1 | Cc1nc(-c2nnc(Nc3ccc(Oc4ccnc5cc(C#N)ccc45)cc3)c3ccccc23)sc1C [compound 277, 4-((4-((4-(4,5-dimethyl-1,3-thiazol-2-yl)-1-phthalazinyl)amino)phenyl)oxy)-7-quinolinecarbonitrile] | 0.065 | 0.007 |  | 
2 | c1ccc2c(-c3ccc4c(c3)OCO4)nnc(Nc3ccc(Oc4ccnc5ccsc45)cc3)c2c1 [compound 279, 4-(1,3-benzodioxol-5-yl)-N-(4-(thieno[3,2-b]pyridin-7-yloxy)phenyl)-1-phthalazinamine] | 0.078 | 0.001 |  | 
3 | c1ccc(-c2nnc(Nc3ccc(Sc4ccnc5cccnc45)cc3)c3ccccc23)cc1 [compound 285, N-(4-(1,5-naphthyridin-4-ylthio)phenyl)-4-phenyl-1-phthalazinamine] | 0.029 | 0.002 |  | 
4 | Cc1noc(-c2cc3nccc(Oc4ccc(Nc5nnc(-c6ccc(Cl)cc6)c6ccccc56)cc4)c3s2)n1 [compound 286, 4-(4-chlorophenyl)-N-(4-((2-(3-methyl-1,2,4-oxadiazol-5-yl)thieno[3,2-b]pyridin-7-yl)oxy)phenyl)-1-phthalazinamine] | 0.087 | 0.022 |  | 
5 | Cc1noc(-c2cc3nccc(Oc4ccc(Nc5nnc(-c6ccccc6)c6ccccc56)cc4)c3s2)n1 [compound 288, N-(4-((2-(3-methyl-1,2,4-oxadiazol-5-yl)thieno[3,2-b]pyridin-7-yl)oxy)phenyl)-4-phenyl-1-phthalazinamine] | 0.302 | 0.039 |  | 
6 | Cc1csc(-c2nnc(Nc3ccc(Oc4ccnc5ccsc45)cc3)c3ccccc23)c1 [compound 289, 4-(4-methyl-2-thienyl)-N-(4-(thieno[3,2-b]pyridin-7-yloxy)phenyl)-1-phthalazinamine] | 0.068 | 0.011 |  | 
7 | Clc1ccc(-c2nnc(Nc3ccc(Oc4ncnc5[nH]ccc45)cc3)c3ccccc23)cc1 [compound 290, 4-(4-chlorophenyl)-N-(4-(7H-pyrrolo[2,3-d]pyrimidin-4-yloxy)phenyl)-1-phthalazinamine] | 0.35 | 0.009 |  | 
8 | COc1ccc2nccc(Sc3ccc(Nc4nnc(-c5ccccc5)c5ccccc45)cc3)c2c1 [compound 292, N-(4-((6-(methyloxy)-4-quinolinyl)thio)phenyl)-4-phenyl-1-phthalazinamine] | 0.144 | 0.011 |  | 
9 | FC1(F)Oc2ccc(-c3nnc(Nc4ccc(Oc5ccnc6ccsc56)cc4)c4ccccc34)cc2O1 [compound 293, 4-(2,2-difluoro-1,3-benzodioxol-5-yl)-N-(4-(thieno[3,2-b]pyridin-7-yloxy)phenyl)-1-phthalazinamine] | 0.266 | 0.006 |  | 
10 | c1ccc(-c2nnc(Nc3ccc(Sc4ccnc5ccccc45)cc3)c3ccccc23)cc1 [compound 294, 4-phenyl-N-(4-(4-quinolinylthio)phenyl)-1-phthalazinamine] |  |  | < 0.1 | < 0.1
11 | COc1ccc2nccc(Sc3ccc(Nc4nnc(-c5ccc(Cl)cc5)c5ccccc45)cc3)c2c1 [compound 297, 4-(4-chlorophenyl)-N-(4-(6-methoxyquinolin-4-ylthio)phenyl)phthalazin-1-amine] | 0.036 | 0.031 |  | 
12 | CCc1cc(N2CC[C@H]3CCCC[C@@H]3C2)nnc1Nc1ccc(Oc2ccnc3cc(OC)cnc23)cc1 [compound 300, 4-ethyl-N-(4-((7-(methyloxy)-1,5-naphthyridin-4-yl)oxy)phenyl)-6-((4aR,8aS)-octahydro-2(1H)-isoquinolinyl)-3-pyridazinamine] | 0.112 | 0.067 |  | 
13 | Clc1ccc(-c2nnc(Nc3ccc(Sc4ccnc5cc(Br)cnc45)cc3)c3ccccc23)cc1 [compound 301, N-(4-((7-bromo-1,5-naphthyridin-4-yl)thio)phenyl)-4-(4-chlorophenyl)-1-phthalazinamine] | 0.035 | 0.063 |  | 
14 | CCc1cc(-c2ccc(C)cc2)nnc1Nc1ccc(Oc2ccnc3cc(OC)cnc23)cc1 [compound 307, 4-ethyl-N-(4-((7-(methyloxy)-1,5-naphthyridin-4-yl)oxy)phenyl)-6-(4-methylphenyl)-3-pyridazinamine] | 0.022 | 0.006 |  | 
15 | Clc1ccc(-c2nnc(Nc3ccc(Sc4ccnc5cccnc45)cc3)c3ccccc23)cc1 [compound 308, 4-(4-chlorophenyl)-N-(4-(1,5-naphthyridin-4-ylthio)phenyl)-1-phthalazinamine] | 0.029 | 0.004 |  | 
16 | c1ccc(-c2nnc(Nc3ccc(Sc4ccnc5cccnc45)cc3)c3ccccc23)cc1 [compound 309, N-(4-(1,5-naphthyridin-4-ylthio)phenyl)-4-phenyl-1-phthalazinamine] | 0.054 | 0.003 |  | 
17 | c1ccc(-c2nnc(Nc3ccc(Sc4ccnc5ccccc45)cc3)c3ccccc23)cc1 [compound 310, 4-phenyl-N-(4-(4-quinolinylthio)phenyl)-1-phthalazinamine] | 0.209 | 0.017 |  | 
18 | Cc1csc(-c2nnc(Nc3ccc(Sc4ccnc5cc(C(=O)N6CCOCC6)sc45)cc3)c3ccccc23)c1 [compound 312, (7-(4-(4-(4-methylthiophen-2-yl)phthalazin-1-ylamino)phenylthio)thieno[3,2-b]pyridin-2-yl)(morpholino)methanone] | 0.022 | 0.03 |  | 
19 | O=C(c1cc2nccc(Sc3ccc(Nc4nnc(-c5ccccc5)c5ccccc45)cc3)c2s1)N1CCOCC1 [compound 313, morpholino(7-(4-(4-phenylphthalazin-1-ylamino)phenylthio)thieno[3,2-b]pyridin-2-yl)methanone] | 0.091 | 0.056 |  | 

Other lines, results leading:

Row | IC50 (AuroraA-TPX2; [1]) [µM] | IC50 (AuroraB; [2]) [µM] | IC50 (AuroraA-TPX2; given as class symbol, read-out: AurA_IC50_IP (class symbol)) [µM] | IC50 (AuroraB; given as class symbol, read-out: AurB_IC50_IP (class symbol)) [µM] | Structure (SMILES)
20 | 0.082 | 0.004 |  |  | COc1ccc2nccc(Oc3ccc(Nc4nnc(-c5ccc(Cl)cn5)c5ccccc45)cc3)c2c1 [compound 278, 4-(5-chloro-2-pyridinyl)-N-(4-((6-(methyloxy)-4-quinolinyl)oxy)phenyl)-1-phthalazinamine]
21 | 0.062 | 0.002 |  |  | COc1cnc2c(Oc3ccc(Nc4nnc(-c5cnc6[nH]ccc6c5)c5ccccc45)cc3)ccnc2c1 [compound 280, N-(4-((7-(methyloxy)-1,5-naphthyridin-4-yl)oxy)phenyl)-4-(1H-pyrrolo[2,3-b]pyridin-5-yl)-1-phthalazinamine]
22 | 0.696 | 0.019 |  |  | COc1cnc2c(Oc3ccc(Nc4nnc(-c5ccccc5)c(C)c4C)cc3)ccnc2c1 [compound 281, 4,5-dimethyl-N-(4-((7-(methyloxy)-1,5-naphthyridin-4-yl)oxy)phenyl)-6-phenyl-3-pyridazinamine]
23 | 0.1 | 0.01 |  |  | COc1cnc2c(Oc3ccc(Nc4nnc(-c5ccnc(Cl)c5)c5ccccc45)cc3)ccnc2c1 [compound 283, 4-(2-chloro-4-pyridinyl)-N-(4-((7-(methyloxy)-1,5-naphthyridin-4-yl)oxy)phenyl)-1-phthalazinamine]
24 | 0.019 | 0.007 |  |  | COc1cnc2c(Oc3ccc(Nc4nnc(-c5ccc(Cl)cc5)c5ccccc45)cc3F)ccnc2c1 [compound 284, 4-(4-chlorophenyl)-N-(3-fluoro-4-((7-(methyloxy)-1,5-naphthyridin-4-yl)oxy)phenyl)-1-phthalazinamine]
25 | 0.061 | 0.013 |  |  | C#Cc1ccc(-c2nnc(Nc3ccc(Oc4ccnc5cc(OC)cnc45)cc3)c3ccccc23)cc1 [compound 287, 4-(4-ethynylphenyl)-N-(4-((7-(methyloxy)-1,5-naphthyridin-4-yl)oxy)phenyl)-1-phthalazinamine]
26 | 0.031 | 0.01 |  |  | COc1cnc2c(Oc3ccc(Nc4nnc(-c5ccc6c(c5)OC(F)(F)O6)c5ccccc45)cc3)ccnc2c1 [compound 291, 4-(2,2-difluoro-1,3-benzodioxol-5-yl)-N-(4-((7-(methyloxy)-1,5-naphthyridin-4-yl)oxy)phenyl)-1-phthalazinamine]
27 | 0.014 | 0.023 |  |  | COc1cnc2c(Oc3ccc(Nc4nnc(-c5cc(Cl)cs5)c5ccccc45)cc3)ccnc2c1 [compound 298, 4-(4-chloro-2-thienyl)-N-(4-((7-(methyloxy)-1,5-naphthyridin-4-yl)oxy)phenyl)-1-phthalazinamine]
28 | 0.018 | 0.015 |  |  | COc1cnc2c(Oc3ccc(Nc4nnc(-c5cccc(C)c5)c5ccccc45)cc3)ccnc2c1 [compound 299, N-(4-((7-(methyloxy)-1,5-naphthyridin-4-yl)oxy)phenyl)-4-(3-methylphenyl)-1-phthalazinamine]
29 | 0.013 | 0.019 |  |  | COc1cnc2c(Sc3ccc(Nc4nnc(-c5ccc(Cl)cn5)c5ccccc45)cc3)ccnc2c1 [compound 304, 4-(5-chloro-2-pyridinyl)-N-(4-((7-(methyloxy)-1,5-naphthyridin-4-yl)thio)phenyl)-1-phthalazinamine]
30 | 0.011 | 0.03 |  |  | COc1cnc2c(Oc3ccc(Nc4nnc(-c5ccc6c(c5)OCO6)c5ccccc45)cc3)ccnc2c1 [compound 306, 4-(1,3-benzodioxol-5-yl)-N-(4-((7-(methyloxy)-1,5-naphthyridin-4-yl)oxy)phenyl)-1-phthalazinamine]
